From patent publication US20070037882A1, “Remedy for cerebral neurodegenerative diseases using ppar agonist” (Astellas Pharma Inc., priority 2003, published 2007)
“Also recorded” adds a separate entry of the source.

Tests used:
SH-SY5Y cells [1] = assay: MPP+-induced cellular death model, apoptosis by caspase-3/7 assay; type: cell-based, human; details: for suppression of caspase-3/7 activity (in words): SH-SY5Y, MPP+; for Caspase 3/7 activity: MPP+ + (3 mM), 3 h
Description: (§1) SH-SY5Y cells were spread on a 96-well plate (70,000 cell/well in 100 μl DMEM low glucose 10% fetal bovine serum) for overnight culturing, from which the culture medium was removed with an aspirator. Then, DMEM without serum was added at 50 μl/well. […] 2 hours later, DMEM without serum containing 18 mM MPP^+ was added at 20 μl/well. (MPP^+ to a final 3 mM concentration.) (For control, DMEM without serum alone was added.)
(§2) 3 hours later, the caspase-3/7 activity was assayed with Apo-One homogenous Caspase-3/7 assay kit (Promega).

SH-SY5Y cells [2] = assay: Staurosporine-induced cellular death model, apoptosis by caspase-3/7 assay; type: cell-based, human; details: for suppression of caspase-3/7 activity (in words): SH-SY5Y, staurosporine; for Caspase 3/7 activity: staurosporine + (150 nM), 3 h
Description: as §1, with “900 nM staurosporine” for “18 mM MPP^+”, “(Staurosporine” for “(MPP^+”, “150 nM concentration)” for “3 mM concentration.)”, “(For a” for “(For”, “added).” for “added.)”
as §2

SH-SY5Y cells [3] = assay: Thapsigargin-induced cellular death model, viable cells by MTT assay; type: cell-based, human; details: for suppression of thapsigargin-induced cellular death (in words): SH-SY5Y; for MTT assay A490: thapsigargin + (100 nM), 24 h
Description: (§3) SH-SY5Y cells were plated on a 96-well plate (70,000 cell/well in 100 μl DMEM low glucose 10% fetal bovine serum) for overnight culturing, from which the culture medium was removed with an aspirator. Then, DMEM without serum was added at 50 μl/well. […] 2 hours later, DMEM without serum containing 600 nM thapsigargin was added at 20 μl/well. (Thapsigargin to a final 100 nM concentration) (For a control, DMEM without serum alone was added.) 24 hours later, the viable cell count was calculated from the absorbance at 490 nm, using Celltiter 96 Aqueous one solution cell proliferaion assay kit (Promega).

SH-SY5Y cells [4] = assay: Staurosporine-induced cellular death model, viable cells by MTT assay; type: cell-based, human; details: for suppression of staurosporine-induced cellular death (in words): SH-SY5Y; for MTT assay A490: staurosporine + (150 nM), 24 h
Description: as §3, with “Cellular death was induced by adding a protein kinase inhibitor staurosporine to a neuroblastoma SH-SY5Y to examine the effect of PPARδ agonists on the suppression of cellular death. SH-SY5Y” for “SH-SY5Y”, “containing 900” for “containing 600”, “nM staurosporine” for “nM thapsigargin”, “μl/well. (Staurosporine” for “μl/well. (Thapsigargin”, “final 150” for “final 100”, “cell proliferation” for “cell proliferaion”

SH-SY5Y cells [5] = assay: MPP+-induced cellular death model, viable cells by MTT assay; type: cell-based, human; details: for suppression of MPP+-induced cellular death (in words): SH-SY5Y; for MTT assay A490: MPP+ + (3 mM), 24 h
Description: as §1, with “concentration)” for “concentration.)”, “(For a” for “(For”, “added).” for “added.)”
24 hours later, cell growth activity was assayed by measuring the absorbance at 490 nm, using Celltiter 96 aqueous one solution cell proliferation assay kit (Promega).
In the assay system, MPP^+ as an MPTP metabolite was added to a neuroblastoma SH-SY5Y, to inhibit the mitochondrial complex I to cause the generation of active oxygen and the inhibition of ATP synthesis, to induce cellular death. It is said that in the murine MPTP model commonly used as a model of Parkinson's disease, MPTP passing through the blood brain barrier is metabolized into MPP^+, which exerts toxicity specific to murine nigra cell to induce nerve detachment. Therefore, the assay system can be said as an in vitro assay system mimicking the murine MPTP model.

SH-SY5Y cells [6] = assay: Thapsigargin-induced cellular death model, apoptosis by caspase-3/7 assay; type: cell-based, human; details: for suppression of caspase-3/7 activity (in words): SH-SY5Y, thapsigargin; for Caspase 3/7 activity: thapsigargin + (100 nM), 3 h
SH-SY5Y cells [7] = assay: Staurosporine-induced cellular death model, dead cells by LDH assay; type: cell-based, human; details: staurosporine + (150 nM), 24 h
Description: SH-SY5Y cells were plated on a 96-well plate (70,000 cell/well in 100 μl DMEM low glucose 10% fetal bovine serum) for overnight culturing, from which the culture medium was removed with an aspirator. Then, DMEM without serum was added at 50 μl/well. […] 2 hours later, DMEM without serum containing 900 nM staurosporine was added at 20 μl/well. (Staurosporine to a final 150 nM concentration) (For a control, DMEM without serum alone was added.) 24 hours later, LDH activity was assayed by measuring the absorbance at 490 nm, using Cytotoxicity detection kit (Roche). […] An apparent correlation is observed with the results of viable cells as determined by the MTT assay in Example 9.

[8] = system: rat cerebral infarction model; assay: Rat cerebral infarction model (middle cerebral artery-occluded reperfusion, Koizumi method); type: in vivo; details: for Lesions with cerebral infarction (area in % of damaged site in the 6 sections), Cortex / Lesions with cerebral infarction (area in % of damaged site in the 6 sections), Subcortex / Lesions with cerebral infarction (area in % of damaged site in the 6 sections), Total: 24 h after reperfusion; for action to reduce cerebral infarction (in words): rat cerebral infarction model

Structure (SMILES)	suppression of caspase-3/7 activity (in words) (SH-SY5Y cells [1])	Caspase 3/7 activity (SH-SY5Y cells [1]; compound 0.1 μM) [RFLU]	Caspase 3/7 activity (SH-SY5Y cells [1]; compound 1 μM) [RFLU]	Caspase 3/7 activity (SH-SY5Y cells [1]; compound 10 μM) [RFLU]	Caspase 3/7 activity (SH-SY5Y cells [1]; compound 100 μM) [RFLU]	suppression of caspase-3/7 activity (in words) (SH-SY5Y cells [2])	Caspase 3/7 activity (SH-SY5Y cells [2]; compound 0.1 μM) [RFLU]	Caspase 3/7 activity (SH-SY5Y cells [2]; compound 1 μM) [RFLU]	Caspase 3/7 activity (SH-SY5Y cells [2]; compound 10 μM) [RFLU]	suppression of thapsigargin-induced cellular death (in words) (SH-SY5Y cells [3])	MTT assay A490 (SH-SY5Y cells [3]; compound 0.1 μM)	MTT assay A490 (SH-SY5Y cells [3]; compound 1 μM)	MTT assay A490 (SH-SY5Y cells [3]; compound 10 μM)	MTT assay A490 (SH-SY5Y cells [3]; compound 100 μM)	suppression of staurosporine-induced cellular death (in words) (SH-SY5Y cells [4])	MTT assay A490 (SH-SY5Y cells [4]; compound 0.1 μM)	MTT assay A490 (SH-SY5Y cells [4]; compound 1 μM)	MTT assay A490 (SH-SY5Y cells [4]; compound 10 μM)	suppression of MPP+-induced cellular death (in words) (SH-SY5Y cells [5])	MTT assay A490 (SH-SY5Y cells [5]; compound 0.1 μM)	further results
Cc1cc(SCc2sc(-c3ccc(C(F)(F)F)cc3)nc2C)ccc1OCC(=O)O [GW501516]	suppress the activity of caspase-3/7 in a concentration-dependent manner	847552 ± 36575	621059 ± 26590	798646 ± 54365	398604 ± 55698	suppress the activity of caspase-3/7	586295 ± 18787	463943 ± 12110	420844 ± 13962	suppressed cellular death induced by thapsigargin (TG) in a concentration-dependent manner	0.2978 ± 0.0096	0.3150 ± 0.0135	0.3478 ± 0.0110	0.2950 ± 0.0033	suppression of staurosporine-induced cellular death in a concentration-dependent manner	0.5179 ± 0.0140	0.5367 ± 0.0149	0.5860 ± 0.0086	suppress cellular death induced by MPP^+ in a concentration-dependent manner	0.3361 ± 0.0073	cellular toxicity (in words) (SH-SY5Y cells [3]; concentration of 100 μM, thapsigargin model): cellular toxicity of GW501516 can be observed; MTT assay A490 (SH-SY5Y cells [5]; compound 1 μM): 0.3926 ± 0.0090; MTT assay A490 (SH-SY5Y cells [5]; compound 10 μM): 0.3814 ± 0.0156; MTT assay A490 (SH-SY5Y cells [5]; compound 100 μM): 0.2990 ± 0.0144; suppression of caspase-3/7 activity (in words) (SH-SY5Y cells [6]): suppress the activity of caspase-3/7; Caspase 3/7 activity (SH-SY5Y cells [6]; compound 1 μM): 237165 ± 5248 RFLU; Caspase 3/7 activity (SH-SY5Y cells [6]; compound 10 μM): 125951 ± 6465 RFLU; Caspase 3/7 activity (SH-SY5Y cells [6]; compound 100 μM): 421972 ± 21782 RFLU; LDH release A490 (SH-SY5Y cells [7]; compound 0.1 μM): 0.5430 ± 0.0264; LDH release A490 (SH-SY5Y cells [7]; compound 1 μM): 0.5201 ± 0.0313; LDH release A490 (SH-SY5Y cells [7]; compound 10 μM): 0.4025 ± 0.0188; Lesions with cerebral infarction (area in % of damaged site in the 6 sections), Cortex ([8]; 24 μg/head/day i.c.v.): 9.39 ± 1.56%; Lesions with cerebral infarction (area in % of damaged site in the 6 sections), Subcortex ([8]; 24 μg/head/day i.c.v.): 9.35 ± 0.65%; Lesions with cerebral infarction (area in % of damaged site in the 6 sections), Total ([8]; 24 μg/head/day i.c.v.): 18.74 ± 2.00%; Lesions with cerebral infarction (area in % of damaged site in the 6 sections), Cortex ([8]; 240 μg/head/day i.c.v.): 7.26 ± 1.67 %; Lesions with cerebral infarction (area in % of damaged site in the 6 sections), Subcortex ([8]; 240 μg/head/day i.c.v.): 7.88 ± 0.79%; Lesions with cerebral infarction (area in % of damaged site in the 6 sections), Total ([8]; 240 μg/head/day i.c.v.): 15.14 ± 2.20 %; action to reduce cerebral infarction (in words) [8]: potent actions to reduce cerebral infarction; also recorded: far greater action of reducing cerebral damages
CCCc1c(OCCCOc2ccc(OCC(=O)O)cc2)ccc(C(C)=O)c1O [L-165041, 4-[3-[2-propyl-3-hydroxy-4-acetyl]phenoxy]propyloxyphenoxy acetic acid]	suppress the activity of caspase-3/7 in a concentration-dependent manner	1430206 ± 30804	1168920 ± 30554	646736 ± 26366	572152 ± 33695	suppress the activity of caspase-3/7	535404 ± 23301	520732 ± 17273	483017 ± 27259	suppressed cellular death induced by thapsigargin (TG) in a concentration-dependent manner	0.2176 ± 0.0036	0.2158 ± 0.0034	0.2436 ± 0.0015	0.4405 ± 0.0065	suppression of staurosporine-induced cellular death in a concentration-dependent manner	0.5523 ± 0.0209	0.5532 ± 0.0056	0.5167 ± 0.0098	suppress cellular death induced by MPP^+ in a concentration-dependent manner	0.3744 ± 0.0067	MTT assay A490 (SH-SY5Y cells [5]; compound 1 μM): 0.3935 ± 0.0083; MTT assay A490 (SH-SY5Y cells [5]; compound 10 μM): 0.4799 ± 0.0078; MTT assay A490 (SH-SY5Y cells [5]; compound 100 μM): 0.3181 ± 0.0122; suppression of caspase-3/7 activity (in words) (SH-SY5Y cells [6]): suppress the activity of caspase-3/7; Caspase 3/7 activity (SH-SY5Y cells [6]; compound 0.1 μM): 732549 ± 24888 RFLU; Caspase 3/7 activity (SH-SY5Y cells [6]; compound 1 μM): 652843 ± 8229 RFLU; Caspase 3/7 activity (SH-SY5Y cells [6]; compound 10 μM): 554233 ± 23703 RFLU; Caspase 3/7 activity (SH-SY5Y cells [6]; compound 100 μM): 242770 ± 5414 RFLU; LDH release A490 (SH-SY5Y cells [7]; compound 0.1 μM): 0.5330 ± 0.0298; LDH release A490 (SH-SY5Y cells [7]; compound 1 μM): 0.5230 ± 0.0160; LDH release A490 (SH-SY5Y cells [7]; compound 10 μM): 0.5319 ± 0.0267; Lesions with cerebral infarction (area in % of damaged site in the 6 sections), Cortex ([8]; 24 μg/head/day i.c.v.): 12.70 ± 0.63%; Lesions with cerebral infarction (area in % of damaged site in the 6 sections), Subcortex ([8]; 24 μg/head/day i.c.v.): 9.98 ± 0.30%; Lesions with cerebral infarction (area in % of damaged site in the 6 sections), Total ([8]; 24 μg/head/day i.c.v.): 22.68 ± 0.83%; Lesions with cerebral infarction (area in % of damaged site in the 6 sections), Cortex ([8]; 240 μg/head/day i.c.v.): 10.22 ± 1.29 %; Lesions with cerebral infarction (area in % of damaged site in the 6 sections), Subcortex ([8]; 240 μg/head/day i.c.v.): 9.19 ± 0.85%; Lesions with cerebral infarction (area in % of damaged site in the 6 sections), Total ([8]; 240 μg/head/day i.c.v.): 19.40 ± 1.98%; Reduction ratio of cerebral cortex damage ([8]; i.c.v. 24 •g/head/day): 9%; Reduction ratio of cerebral cortex damage ([8]; i.c.v. 240 •g/head/day): 27%; action to reduce cerebral infarction (in words) [8]: potent actions to reduce cerebral infarction
